Here are results for six compounds from patent publication US7589092B2, “Prodrugs of heteroaryl compounds” (Koronis Pharmaceuticals, Incorporated, priority 2003, dated 2009).

A short description of series [1]: Bioavailability / pharmacokinetic study in dogs. To be noted: dog. The class given is in vivo, Canis familiaris. An excerpt:
This study tested the bioavailability of different test compounds in dogs, by intravenous or oral gavage administration, at prescribed dose levels. The animals tested in this study were Canis familiaris, from Harlan Sprague Dawley (Indianapolis, Ind.). Four dogs (2 males and 2 females), with an average age of seven months, were included in each test group. The dogs were identified by ear tattoos, and given a fourteen day acclimatization period prior to the commencement of testing. Dogs were group housed but separated by sex. The animal room environment was controlled and monitored daily. The temperature ranged from 18 to 29° C. and the relative humidity ranged from 30%-70%. The photocycle was 12 hours light and 12 hours dark. All animals were submitted to a general physical examination and only those found healthy were admitted for the study. All selected animals were given two days to adjust to laboratory conditions before the study began. Teklad Dog Diet was fed twice daily and water was constantly available to the dogs throughout the acclimatization and study periods. Twenty-four hours prior to the initiation of the study, animals were randomly selected into two groups with 1 male and 1 female in each group. […] Blood was collected from the v. cephalica antebrachii of each of the two animals prior to study initiation, at thirty minutes and at 1, 2, 4, and 12 hours after dosing. […] IV dosages of DHAdC, as well as oral dosages of prodrugs […] C9-DHAdC were recorded. The dogs were administered 50 mg/kg DHAdC or DHAdC equivalent in the case of prodrugs. The maximum concentration (Cmax), clearance (AUC∞), half-life (T1/2), and % Oral Bioavailability were recorded and are presented in Table 2: […]

The conditions of series [2]: test concentration 100 um, RT, 60 minutes equilibration. The method, then:
The compounds were first dissolved in a 60% methanol/40% water (v/v) solution containing 1% DMSO and brought to a concentration of 100 μM. The optimal detection wavelength was determined and calibration studies were performed with the solution. After calibration, the compounds were placed into n-octanol-PBS buffer at pH 7.4 at RT. The mixture was shaken and allowed to equilibrate for 60 minutes. The amount of compound in the PBS buffer phase was then determined by HPLC/UV-Vis. The amount of compound in n-octanol was determined by subtracting […]. This experiment was conducted for three samples. These three samples were then each corrected for volume and the results were averaged. Log D was calculated as the Log10 of the amount of compound in the n-octanol phase divided by the amount of compound in the buffer phase.
Lipophilicity is a major structural factor that influences the pharmacokinetic and pharmacodynamic behavior of compounds. In this assay, prodrugs C7-DHAdC, C8-DHAdC, and C9-DHAdC were partitioned between n-octanol and phosphate buffered saline (PBS).

The nature of series [3]: Bioavailability / pharmacokinetic study in rats. Type of series: in vivo. To be noted: rat. The source says:
This study tested the bioavailability of different test compounds in rats, by oral gavage administration, at prescribed dose levels. The animals tested in this study were Rattus norvegicus, CD strain, from Charles River Canada (Montreal, Canada). Six males were included in each test group. Their weight ranged from 200 to 250 grams before fasting. […] Rats were individually housed in Nalgene rat cages with stainless steel covers. The animal room environment was controlled and monitored daily. The temperature ranged from 18 to 26° C. and the relative humidity ranged from 30%-70%. The photocycle was 12 hours light and 12 hours dark. All animals were submitted to a general physical examination and only those found healthy were admitted for the study. All selected animals were given two days to adjust to laboratory conditions before the study began. Teklad rodent Diet and water were constantly available to the rats throughout the acclimatization and study periods. Forty-eight hours prior to the initiation of the study, animals were randomly selected and two subsets of 3 male rats per group were formed. Due to the large volume of blood taken, collections will be done by alternating timepoints between subsets. All animals were fasted for twelve hours prior to the initiation of the study. […] Blood was collected from the orbital sinus of animals from each group at thirty minutes and at 1, 2, 4, and 12 hours after dosing. At each blood collection time point, three rats per group were bled. […] Oral and IV dosages of DHAdC, as well as oral dosages of prodrugs C7-DHAdC and C9-DHAdC were recorded. The rats were administered 100 mg/kg DHAdC or DHAdC equivalent in the case of prodrugs. The maximum concentration (Cmax), clearance (AUC∞), half-life (T1/2), and % Oral Bioavailability were recorded and are presented in Table 1: […]

The conditions of series [4]: deamination product of 5-aza-dC; Momparler et al.; cited from earlier work.
A further series concerns HIV. To be noted: Bouchard et al.; cited from earlier work.
The mark [5] stands for this setting: oral gavage, 50 mg/kg DHAdC equivalent.
Where [6] appears, read: male, CD, blood, IV, 100 mg/kg DHAdC.
Setting [7] is: male, CD, blood, oral gavage, 100 mg/kg DHAdC or DHAdC equivalent.
[8] abbreviates: both sexes, blood, IV, 50 mg/kg DHAdC.
The mark [9] stands for this setting: oral gavage, 100 mg/kg DHAdC or DHAdC equivalent.

Structures are written as SMILES.

Consider `CCCCCCCCOC(=O)NC1=NC(=O)N([C@H]2C[C@H](O)[C@@H](CO)O2)CN1` [Compound C8-DHAdC, N^4-Octyloxycarbonyl-β-2′-deoxy-5,6-dihydro-5-azacytidine], for which, in series [1] (setting [5]), the “AUC∞” value is reported as 17,845 ng-hr/mL; the maximum concentration (Cmax) – broadly, the peak of the concentration-time curve – is 5,172 ng/mL; the Oral bioavailability was determined as 11%; the T1/2 stood at 2.8 h. In series [2], the “log D n-Octanol PBS pH 7.4” value was determined as 2.56.

In the case of `NC1=NC(=O)N([C@H]2C[C@H](O)[C@@H](CO)O2)CN1` [DHAdC, 5,6-dihydro-5-aza-2′-deoxycytidine], the AUC(0-inf) (in general, the area under the concentration-time curve extrapolated to infinity) is 75000 ng·h/mL in series [3] (setting [6]), 8540 ng·h/mL in series [3] (setting [7]) and 156000 ng·h/mL in series [1] (setting [8]). In addition, the figures for the half-life in series [3] (setting [6]), in series [3] (setting [7]) and in series [1] (setting [8]) were 1.8 h, 0.8 h and 2.1 h, respectively. Moreover, the Cmax in series [3] (male, CD, blood, IV, 100 mg/kg DHAdC, read-out: Cmax) is 40000 ng/mL; in series [3] (male, CD, blood, oral gavage, 100 mg/kg DHAdC or DHAdC equivalent, read-out: Cmax), 1860 ng/mL; in series [1] (both sexes, blood, IV, 50 mg/kg DHAdC, read-out: Cmax), 76300 ng/mL. For the same compound, the bioavailability – broadly, dose-corrected exposure relative to a reference, in per cent – in series [3] (setting [7]) is 11%.

For the compound `CCCCCCCOC(=O)NC1=NC(=O)N([C@H]2C[C@H](O)[C@@H](CO)O2)CN1` [Compound C7-DHAdC, N^4-Heptyloxycarbonyl-β-2′-deoxy-5,6-dihydro-5-azacytidine], in series [3] (setting [9]), the “AUC∞” value is 32,101 ng-hr/mL, the Cmax is reported as 5,577 ng/mL, the Oral bioavailability amounted to 43% and the T1/2 was 3.9 h. Further, in series [1] (setting [5]), the “AUC∞” value was 59,377 ng-hr/mL, the Cmax is 11,282 ng/mL, the Oral bioavailability was determined as 51% and the T1/2 came out at 2.1 h. For the same compound, the “log D n-Octanol PBS pH 7.4” value in series [2] is 2.04.

Turning to `CCCCCCCCCOC(=O)NC1=NC(=O)N([C@H]2C[C@H](O)[C@@H](CO)O2)CN1` [Compound C9-DHAdC, N^4-Nonyloxycarbonyl-β-2′-deoxy-5,6-dihydro-5-azacytidine], in series [3] (setting [9]), the “AUC∞” value is given as 26,472 ng-hr/mL, the Cmax is 5,550 ng/mL, the Oral bioavailability came to 35% and the T1/2 is 3.6 h. In series [1] (setting [5]), the “AUC∞” value was 54,540 ng-hr/mL, the Cmax was 8,932 ng/mL, the Oral bioavailability came out at 36% and the T1/2 was found to be 2.2 h. Moreover, the “log D n-Octanol PBS pH 7.4” value in series [2] is listed as 3.16.

Turning to `O=c1ncn([C@H]2C[C@H](O)[C@@H](CO)O2)c(=O)[nH]1` [Compound 5-aza-dU, 5-aza-2′-deoxyuridine], the antineoplastic activity entry in series [4] is recorded as “loss of antineoplastic activity”.

For `Nc1ncn([C@H]2C[C@H](O)[C@@H](CO)O2)c(=O)n1` [Compound 5-aza-dC, 5-aza-2′-deoxycytidine], the “HIV replication in vitro” value in the series on HIV is given as “inhibit HIV replication in vitro”.
